From US10441588B2, “Methods and compositions for treating bacterial infection” (Curators of the University of Missouri, priority 2012, dated 2019)

Experiments:
S. aureus biofilm = S. aureus biofilm inhibition, optical density, test/control; assay type: cell-based, Staphylococcus aureus; details: Staphylococcus aureus, growth of biofilm test/control by optical density
E. coli flagellin (fliC) = assay: microbe, parasite or virus in culture; assay type: cell-based
[1] = test system: S. aureus clinical strain NRS234; assay: S. aureus pneumonia model; assay type: in vivo, Balb/C mice
Method: S. aureus is one of the major causative agents of pneumonia. CCG-211790 was tested in a pneumonia model. Balb/C mice were intra-nasally infected with 10^7 CFU S. aureus clinical strain NRS234 and treated with either 0.15 μmol CCG-211790 or DMSO two hours after infection. The mice were then treated with CCG-211790 or DMSO (control) twice a day after the day of infection for three days. […] Mice were also infected with higher dose of bacteria at 10^9 CFU treated intraperitoneally (ip) with either 0.15 μmol CCG-211790, vancomycin, combination of CCG-21790 and vancomycin, or DMSO two hours after infection. The mice were then treated twice a day after the day of infection for three days.

MRSA [2] = assay: MRSA skin punch wound infection in DIO mice; assay type: in vivo, diet induced obesity (DIO) mice; details: 10^8 CFU MRSA; 60 μg/wound in ointment (6% silica in cod liver oil) vs ointment alone
Text: In this example, in vivo and in vitro efficacy for wound infection (against MRSA and P. aeruginosa) was investigated. Diabetic ulcer lesion is a major complication of people with diabetes and represents a form of chronic wounds. Bacteria can form biofilm in the lesions, which is recalcitrant to treatment. Therefore, diet induced obesity (DIO) mice were used as a model of obesity and insulin resistance diabetes to test the in vivo efficacy of CCG-211790 to fight wound infections.
(§1) A skin punch wound was introduced to the DIO mice and infected with 10^8 CFU MRSA. Mice were then treated locally at the wound site with ointment containing CCG-211790 (60 μg/wound) in an ointment (6% silica in cod liver oil) or ointment alone. […] Furthermore, CCG-211790 protected mouse fibroblast cells (CCL-1) from MRSA cytoxicity in vitro (FIG. 13B).

[3] = test system: mouse fibroblast cells (CCL-1); assay: MRSA cytotoxicity on mouse fibroblast cells in vitro; assay type: cell-based
Method: as §1

P. aeruginosa [4] = assay: P. aeruginosa wound infection in DIO mice; assay type: in vivo
[5] = test system: E. coli adhesion to human epithelial cells (Caco2); assay: E. coli adhesion to Caco2 cells; assay type: cell-based; details: Caco-2
Method: FIGS. 15A and 15B show CCG-211790 (NV001) inhibited E. coli virulence. FIG. 15A is a western blot of fliC expression at different concentrations of CCG-211790 (NV001).
CCG-211790 (NV001) and a number of structural analogs inhibited the expression of the flagellin gene (fliC) (FIG. 15A) and also the bacterial adhesion to human epithelial cells (Caco2) (FIG. 15B). As summarized in Table 5, the effect of compounds on E. coli flagellin expression was also tested by incubating compounds (5 and 25 μM) with E. coli for 6 hours, flagellin expression in supernatant (IVG-00601, 607) or cell pellet (IVG-00608-006014) was examined by western and quantified.

E. coli STEC O157:H7 = assay type: in vivo, mice
[6] = test system: A. baumannii (AYE) biofilm; assay: A. baumannii open wound infection mouse model; assay type: in vivo, mice; details: topical, 6 mg/ml in PEG, 100 μl daily
Method: A topical formulation (6 mg/ml in Polyehylene glycol; PEG) was tested for its in vivo efficacy on the open wound infection mouse model.

MRSA [7] = assay: MRSA growth
P. aeruginosa [8] = assay: Ciprofloxacin potency against P. aeruginosa
Acinetobacter baumannii = assay: Vancomycin potency against Acinetobacter baumannii
MRSA [9] = assay: MRSA response to antibiotics in presence of compound; details: 50 μM CCG-211790

`COc1ccc2c(c1)-c1nc(SCC(F)(F)F)n(C)c(=O)c1C(C)(C)C2` [CCG-211790, 9-methoxy-3,5,5-trimethyl-2-((2,2,2-trifluoroethyl)thio)-5,6-dihydrobenzo[h]quinazolin-4(3H)-one] gave an activity at 5 µM (S. aureus biofilm; 5 μM, read-out: S. aureus Biofilm Inhibition 5 μM vs. (−) Control) of 38.1%, an activity at 50 µM (S. aureus biofilm; 50 μM, read-out: S. aureus Biofilm Inhibition 50 μM vs. (−) Control) of 32.6% and an activity at 5 µM (E. coli flagellin (fliC); Escherichia coli, 6 h, read-out: E. coli flagellin production, Relative Level vs. Control, 5 μM) of 56.9%. For the same compound, the activity at 25 µM (E. coli flagellin (fliC); Escherichia coli, 6 h, read-out: E. coli flagellin production, Relative Level vs. Control, 25 μM) was 15.4%, the “expression of the flagellin gene (fliC)” value (E. coli flagellin (fliC); western blot, different concentrations) was “inhibited” and the “bacterial counts in both lungs and spleens” value ([1]; 10^7 CFU intranasal, 0.15 μmol, twice a day for three days, vs DMSO) was “Significant reduction”. The “protection of hosts (survival), monotherapy” value ([1]; 10^9 CFU, 0.15 μmol ip) was “Significant protection”, the “survival rate, combination with vancomycin” value ([1]; 10^9 CFU, combination of vancomycin and CCG-211790) was “improved the survival rate” and the skin lesion size (MRSA [2]) was “reduce the skin lesion size”. The “protection of CCL-1 cells from MRSA cytoxicity” value [3] was “protected”, the survival (P. aeruginosa [4]; female DIO mice, 10^8 CFU, 12 mg/kg CCG-211790 oral with 10 mg/kg vancomycin ip) was 100% and the skin lesion size (P. aeruginosa [4]; male and female DIO mice, with vancomycin vs only vancomycin) was “reduced”. For the same compound, the “bacterial adhesion to human epithelial cells (Caco2)” value [5] was “inhibited”, the survival (E. coli STEC O157:H7; […], 10 mg/kg ip twice a day) was 55.6% and the “infection symptoms and survival” value (E. coli STEC O157:H7; mouse, in vivo) was “improved infection symptoms and survival”. The “A. baumannii infected wound lesion size” value [6] was “reduced”, the “effect on bacteria growth” value (MRSA [7]) was “little to no effect” and the “ciprofloxacin potency against P. aeruginosa” value (P. aeruginosa [8]) was “enhanced”. For the same compound, the “potency of vancomycin against Acinetobacter baumannii” value (Acinetobacter baumannii) was “enhanced the potency” and the “antibiotic potency against MRSA (amoxicillin, vancomycin, clindamycin, tetracycline, erythromycin)” value (MRSA [9]) was “enhanced the antibiotic potency”.
